These results are taken from paper PMC4503439, “Dose-Independent ADME Properties and Tentative Identification of Metabolites of α-Mangostin from Garcinia mangostana in Mice by Automated Microsampling and UPLC-MS/MS Methods” (PLoS ONE, 2015).

Each structure is given as a SMILES string. Where two headings read alike, the source gives them in different places.

This data set can be described thus: Pharmacokinetics of α-MG after oral administration to mice (automated microsampling). To be noted: for CL renal / Cmax / AUC / Tmax / half-life / Ae 0–24 h / GI 24 h: oral; for Tmax: median (ranges); for half-life: read-out: Terminal half-life. It counts as in vivo. How it is done:
The surgical procedures were conducted under intramuscular injection anesthesia with 125 mg (1.5 mL)/kg of tiletamine HCl and zolazepam HCl mixture. The carotid artery (for intravenous and oral studies) and the jugular vein (for intravenous study) were cannulated using CX-2052S and CX-2022S catheters (BASi, West Lafayette, IN), respectively. After the mice awoke from anesthesia, the administration of α-MG and blood sampling were performed, [12], [31].
α-MG (the same solution as used in the intravenous study) at doses of 10, 50 and 100 mg (10 mL)/kg was administered orally using a gastric gavage tube after overnight fasting with free access to water. A blood sample using the microsampling system was collected via the carotid artery at 0, 5, 15, 30, 60, 90, 120, 180, 240, 300 and 360 min after the oral administration of α-MG. Other procedures were similar to those in the intravenous study.
The analytical method for measuring α-MG was modified from a previous report. In sample preparation, 100 μL of acetonitrile containing 1 μg/mL IS was added to 50 μL of aliquot of the sample. After vortex-mixing and centrifugation (15000 × g for 10 min), 10 μL of the supernatant was directly injected into a reversed-phase C18 column (Cadenza CD-C18, 2 mm × 75 mm i.d., 3-μm particle size; Imtakt, USA) kept at 4°C until injection. The analytes were monitored using a API4000 triple quadrupole mass spectrometer (AB Sciex, Foster City, CA) equipped with a turbo ion-spray interface for electrospray ionization and operated in positive ion mode at 5500 V and 500°C at 50 L/min of nebulizing gas flow, 50 L/min of turbo ion-spray gas flow, 20 L/min of curtain gas flow, 5500 V of ring voltage and 5 Torr of collision gas (nitrogen) pressure.
Standard methods were used to calculate the following pharmacokinetic parameters using a non-compartmental analysis (WinNonlin 2.1; Pharmasight Corp., Mountain View, CA). The extent of absolute oral bioavailability (F) was calculated by dividing the AUCoral/AUCiv at the same dose. The peak plasma concentration (C max) and time to reach C max (T max) were read directly from the […] data.

Regarding `COc1c(O)cc2oc3cc(O)c(CC=C(C)C)c(O)c3c(=O)c2c1CC=C(C)C` [α-MG, α-Mangostin], for the setting “after oral administration”, the “first blood sampling time point at which detected in plasma” value is given as 5 min. Under “calculated by reported equation assuming linear pharmacokinetics”, the “F unabs ('true' fraction of the oral dose unabsorbed)” value was 0.434. For the setting “mouse, plasma, oral 10 mg/kg, AUCoral/AUCiv at the same dose, read-out: F (absolute oral bioavailability)”, the bioavailability was 2.29%. Also, the CL renal reads like this: (mouse, plasma, 10 mg/kg) 0.535 ± 0.309 mL/min/kg; (mouse, plasma, 50 mg/kg) 0.547 ± 0.309 mL/min/kg; (mouse, plasma, 100 mg/kg) 0.418 ± 0.229 mL/min/kg. In addition, the Cmax is, setting by setting: (mouse, plasma, 10 mg/kg) 40.3 ± 30.7 ng/mL; (mouse, plasma, 50 mg/kg) 242 ± 35 ng/mL; (mouse, plasma, 100 mg/kg) 709 ± 397 ng/mL. Moreover, the AUC was 130 ng·h/mL (mouse, plasma, 10 mg/kg (n = 8)); 622 ng·h/mL (mouse, plasma, 50 mg/kg (n = 7)); 1390 ng·h/mL (mouse, plasma, 100 mg/kg (n = 9)). Also, the Tmax reads like this: (mouse, plasma, 10 mg/kg) 1 h; (mouse, plasma, 50 mg/kg) 0.5 h; (mouse, plasma, 100 mg/kg) 1 h. In addition, the half-life is, setting by setting: (mouse, plasma, 10 mg/kg) 2.95 ± 1.18 h; (mouse, plasma, 50 mg/kg) 3.28 ± 1.35 h; (mouse, plasma, 100 mg/kg) 2.52 ± 0.822 h. Also, the “Ae 0–24 h” value (10 mg/kg) is 0.0255 ± 0.0107 % of dose, the “Ae 0–24 h” value (50 mg/kg) was 0.0315 ± 0.0241 % of dose and the “Ae 0–24 h” value (100 mg/kg) is reported as 0.0270 ± 0.0113 % of dose. Besides, the “GI 24 h” value (10 mg/kg) is 43.5 ± 10.6 % of dose, the “GI 24 h” value (50 mg/kg) is reported as 40.2 ± 11.6 % of dose and the “GI 24 h” value (100 mg/kg) is reported as 41.2 ± 4.51 % of dose.
